Patent publication US20260035382A1, “COMPOUNDS AS SUMO ACTIVATING ENZYME INHIBITORS” (WIGEN BIOMEDICINE TECHNOLOGY (SHANGHAI) CO., LTD., priority 2022, published 2026)

Target: SAE (Homo sapiens (Human), UniProt Q9UBT2)
Assay: In vitro inhibitory activity assay against SAE (SUMO-2/3 immunofluorescence in HCT116 cells)
Assay type: cell-based
Conditions: 6 h incubation, class symbols, read-out: SUMO IF IC50
Method in brief: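 HCT116 cells treated with compounds for 6 h at 37 °C, then fixed, permeabilized and immunostained for SUMO-2/3 with FITC secondary detection. Fluorescence compared with DMSO control to give inhibition rate and IC50.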

Chain of SAE (Q9UBT2 whole entry): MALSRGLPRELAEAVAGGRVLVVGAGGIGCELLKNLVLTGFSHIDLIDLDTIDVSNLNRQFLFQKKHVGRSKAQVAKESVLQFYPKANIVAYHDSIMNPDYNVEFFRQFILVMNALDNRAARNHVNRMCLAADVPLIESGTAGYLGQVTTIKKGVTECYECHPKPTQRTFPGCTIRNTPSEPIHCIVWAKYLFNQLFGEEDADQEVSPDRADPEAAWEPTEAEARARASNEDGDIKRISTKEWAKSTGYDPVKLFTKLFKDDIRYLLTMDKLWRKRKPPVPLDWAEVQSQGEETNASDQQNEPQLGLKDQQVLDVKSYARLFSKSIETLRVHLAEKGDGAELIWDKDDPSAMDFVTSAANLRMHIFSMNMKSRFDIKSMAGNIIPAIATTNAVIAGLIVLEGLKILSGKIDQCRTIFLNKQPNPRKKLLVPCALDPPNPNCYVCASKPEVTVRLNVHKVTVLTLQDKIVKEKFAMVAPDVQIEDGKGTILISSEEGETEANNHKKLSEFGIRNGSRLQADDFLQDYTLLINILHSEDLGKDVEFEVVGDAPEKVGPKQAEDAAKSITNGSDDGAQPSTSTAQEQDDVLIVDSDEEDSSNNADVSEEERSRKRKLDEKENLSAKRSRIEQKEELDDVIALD
Chain of SAE (Q9UBE0 whole entry partner): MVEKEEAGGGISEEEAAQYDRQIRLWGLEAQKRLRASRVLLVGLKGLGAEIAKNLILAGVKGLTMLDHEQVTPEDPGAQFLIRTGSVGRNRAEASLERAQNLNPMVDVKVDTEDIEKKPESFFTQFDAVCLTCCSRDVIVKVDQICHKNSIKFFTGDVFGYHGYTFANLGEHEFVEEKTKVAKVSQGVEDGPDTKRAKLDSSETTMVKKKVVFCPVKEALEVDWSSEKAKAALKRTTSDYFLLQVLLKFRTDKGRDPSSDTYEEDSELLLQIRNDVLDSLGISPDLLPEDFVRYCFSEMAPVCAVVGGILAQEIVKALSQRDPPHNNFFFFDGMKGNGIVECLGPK

Row | SMILES | IC50
1 | NS(=O)(=O)OC[C@H]1C[C@@H](Nc2ncncc2C(=O)c2cc3c(s2)C(F)(F)C[C@@]32NCCc3ccc(Cl)cc32)C[C@@H]1O [Compound 161] | > 200 nM
2 | NS(=O)(=O)OC[C@H]1C[C@@H](Nc2ncncc2C(=O)c2cc3c(s2)C(F)(F)C[C@]32NCCc3ccc(Cl)cc32)C[C@@H]1O [Compound 162] | 50 to 200 nM
3 | NS(=O)(=O)OC[C@H]1C[C@@H](Nc2ncncc2C(=O)c2cc3c(s2)CCCC32NC(=O)Cc3ccc(Cl)cc32)C[C@@H]1O (stereo partly shown) [Compound 163] | > 200 nM
4 | NS(=O)(=O)OC[C@H]1C[C@@H](Nc2ncncc2C(=O)c2cc3c(s2)CCC[C@@]32NC(=O)Cc3ccc(Cl)cc32)C[C@@H]1O [Compound 164] | > 200 nM
5 | NS(=O)(=O)OC[C@H]1C[C@@H](Nc2ncncc2C(=O)c2cc3c(s2)CCC[C@]32NC(=O)Cc3ccc(Cl)cc32)C[C@@H]1O [Compound 165] | > 200 nM
6 | NS(=O)(=O)OC[C@H]1C[C@@H](Nc2ncncc2C(=O)c2cc3c(s2)C(=O)CC32NCCc3ccc(Cl)cc32)C[C@@H]1O (stereo partly shown) [Compound 166] | 50 to 200 nM
7 | NS(=O)(=O)OC[C@H]1C[C@@H](Nc2ncncc2C(=O)c2cc3c(s2)C(=O)C[C@@]32NCCc3ccc(Cl)cc32)C[C@@H]1O [Compound 167] | > 200 nM
8 | NS(=O)(=O)OC[C@H]1C[C@@H](Nc2ncncc2C(=O)c2cc3c(s2)C(=O)C[C@]32NCCc3ccc(Cl)cc32)C[C@@H]1O [Compound 168] | 50 to 200 nM
9 | NS(=O)(=O)OC[C@H]1C[C@@H](Nc2ncncc2C(=O)c2cc3c(s2)C=C[C@@]32NCCc3ccc(F)cc32)C[C@@H]1O [Compound 177] | > 200 nM
10 | NS(=O)(=O)OC[C@H]1C[C@@H](Nc2ncncc2C(=O)c2cc3c(s2)C=C[C@]32NCCc3ccc(F)cc32)C[C@@H]1O [Compound 178] | ≤ 50 nM
11 | COc1ccc2c(c1)[C@]1(CCCc3sc(C(=O)c4cncnc4N[C@@H]4C[C@H](COS(N)(=O)=O)[C@@H](O)C4)cc31)NCC2 [Compound 179] | > 200 nM
12 | COc1ccc2c(c1)[C@@]1(CCCc3sc(C(=O)c4cncnc4N[C@@H]4C[C@H](COS(N)(=O)=O)[C@@H](O)C4)cc31)NCC2 [Compound 180] | > 200 nM
13 | CCN1Cc2sc(C(=O)c3cncnc3N[C@@H]3C[C@H](COS(N)(=O)=O)[C@@H](O)C3)cc2C2(C1)NCCc1ccc(Cl)cc12 (stereo partly shown) [Compound 181] | ≤ 50 nM
14 | CC(C)N1Cc2sc(C(=O)c3cncnc3N[C@@H]3C[C@H](COS(N)(=O)=O)[C@@H](O)C3)cc2C2(C1)NCCc1ccc(Cl)cc12 (stereo partly shown) [Compound 184] | ≤ 50 nM
15 | NS(=O)(=O)OC[C@H]1C[C@@H](Nc2ncncc2C(=O)c2cc3c(s2)CN(CC(F)(F)F)CC32NCCc3ccc(Cl)cc32)C[C@@H]1O (stereo partly shown) [Compound 187] | ≤ 50 nM
16 | C=CCN1Cc2sc(C(=O)c3cncnc3N[C@@H]3C[C@H](COS(N)(=O)=O)[C@@H](O)C3)cc2C2(C1)NCCc1ccc(Cl)cc12 (stereo partly shown) [Compound 190] | ≤ 50 nM
17 | C#CCN1Cc2sc(C(=O)c3cncnc3N[C@@H]3C[C@H](COS(N)(=O)=O)[C@@H](O)C3)cc2C2(C1)NCCc1ccc(Cl)cc12 (stereo partly shown) [Compound 193] | ≤ 50 nM
18 | [2H]C1([2H])Cc2ccc(Cl)cc2C2(CCCc3sc(C(=O)c4cncnc4N[C@@H]4C[C@H](COS(N)(=O)=O)[C@@H](O)C4)cc32)N1 (stereo partly shown) [Compound 196] | 50 to 200 nM
19 | [2H]C1([2H])CNC2(CCCc3sc(C(=O)c4cncnc4N[C@@H]4C[C@H](COS(N)(=O)=O)[C@@H](O)C4)cc32)c2cc(Cl)ccc21 (stereo partly shown) [Compound 199] | ≤ 50 nM
20 | Cc1ccc2c(c1)[C@@]1(CCCc3sc(C(=O)c4cncnc4N[C@@H]4C[C@H](COS(N)(=O)=O)[C@@H](O)C4)cc31)NCC2 [Compound 202] | 50 to 200 nM

Row | SMILES | IC50
21 | NS(=O)(=O)OC[C@H]1C[C@@H](Nc2ncncc2C(=O)c2cc3c(s2)CCC[C@]32NCCc3ccc(C4CC4)cc32)C[C@@H]1O [Compound 203] | 50 to 200 nM
22 | C#Cc1ccc2c(c1)[C@@]1(CCCc3sc(C(=O)c4cncnc4N[C@@H]4C[C@H](COS(N)(=O)=O)[C@@H](O)C4)cc31)NCC2 [Compound 204] | 50 to 200 nM
23 | NS(=O)(=O)OC[C@H]1C[C@@H](Nc2ncncc2C(=O)c2cc3c(s2)CCC[C@]32NCCc3ccc(C(F)(F)F)cc32)C[C@@H]1O [Compound 205] | 50 to 200 nM
24 | NS(=O)(=O)OC[C@H]1C[C@@H](Nc2ncncc2C(=O)c2cc3c(s2)CCC[C@]32NCCc3cc(F)c(F)cc32)C[C@@H]1O [Compound 206] | ≤ 50 nM
25 | NS(=O)(=O)OC[C@H]1C[C@@H](Nc2ncncc2C(=O)c2cc3c(s2)CCC[C@]32NCCc3cc(F)c(Cl)cc32)C[C@@H]1O [Compound 207] | ≤ 50 nM
26 | NS(=O)(=O)OC[C@H]1C[C@@H](Nc2ncncc2C(=O)c2cc3c(s2)CCC[C@]32NCCc3cc(Cl)c(Cl)cc32)C[C@@H]1O [Compound 208] | ≤ 50 nM
27 | N#Cc1cc2c(cc1Cl)[C@@]1(CCCc3sc(C(=O)c4cncnc4N[C@@H]4C[C@H](COS(N)(=O)=O)[C@@H](O)C4)cc31)NCC2 [Compound 210] | ≤ 50 nM
28 | COc1cc2c(cc1Cl)[C@@]1(CCCc3sc(C(=O)c4cncnc4N[C@@H]4C[C@H](COS(N)(=O)=O)[C@@H](O)C4)cc31)NCC2 [Compound 211] | 50 to 200 nM
29 | NS(=O)(=O)OC[C@H]1C[C@@H](Nc2ncncc2C(=O)c2cc3c(s2)CCC[C@]32NCCc3cc(F)c(Cl)c(F)c32)C[C@@H]1O [Compound 212] | ≤ 50 nM
30 | NS(=O)(=O)OC[C@H]1C[C@@H](Nc2ncncc2C(=O)c2cc3c(s2)CCC[C@]32NCCc3cc(Cl)c(F)cc32)C[C@@H]1O [Compound 213] | ≤ 50 nM
31 | NS(=O)(=O)OC[C@H]1C[C@@H](Nc2ncncc2C(=O)c2cc3c(s2)CCC[C@]32NCCc3ccncc32)C[C@@H]1O [Compound 214] | 50 to 200 nM
32 | NS(=O)(=O)OC[C@H]1C[C@@H](Nc2ncncc2C(=O)c2cc3c(s2)CCC[C@]32NCCc3cc(Cl)ncc32)C[C@@H]1O [Compound 215] | 50 to 200 nM
33 | NS(=O)(=O)OC[C@H]1C[C@@H](Nc2ncncc2C(=O)c2cc3c(s2)C=CC[C@]32NCCc3ccc(Cl)cc32)C[C@@H]1O [Compound 216] | ≤ 50 nM
34 | NS(=O)(=O)OC[C@H]1C[C@@H](Nc2ncncc2C(=O)c2cc3c(s2)CC=C[C@]32NCCc3ccc(Cl)cc32)C[C@@H]1O [Compound 217] | ≤ 50 nM
35 | NS(=O)(=O)OC[C@H]1C[C@@H](Nc2ncncc2C(=O)c2cc3c(s2)OCC[C@]32NCCc3ccc(Cl)cc32)C[C@@H]1O [Compound 218] | 50 to 200 nM
36 | NS(=O)(=O)OC[C@H]1C[C@@H](Nc2ncncc2C(=O)c2cc3c(s2)CCC[C@]32NCC3(CC3)c3ccc(Cl)cc32)C[C@@H]1O [Compound 219] | ≤ 50 nM
37 | NS(=O)(=O)OC[C@H]1C[C@@H](Nc2ncncc2C(=O)c2cc3c(s2)CCC[C@]32NC3(CC3)Cc3ccc(Cl)cc32)C[C@@H]1O [Compound 220] | 50 to 200 nM
38 | NS(=O)(=O)OC[C@H]1C[C@@H](Nc2ncncc2C(=O)c2cc3c(s2)CCC[C@@]32OCCc3ccc(Cl)cc32)C[C@@H]1O [Compound 221] | > 200 nM
39 | NS(=O)(=O)OC[C@H]1C[C@@H](Nc2ncncc2C(=O)c2cc3c(s2)CCC[C@]32OCCc3ccc(Cl)cc32)C[C@@H]1O [Compound 222] | ≤ 50 nM

Same assay, conditions: 6 h incubation, numeric values, read-out: SUMO IF IC50

Row | SMILES | IC50
40 | NS(=O)(=O)OC[C@H]1C[C@@H](Nc2ncncc2C(=O)c2cc3c(s2)C=C[C@@]32NCCc3ccc(Cl)cc32)C[C@@H]1O [Compound 175] | > 1000 nM
41 | NS(=O)(=O)OC[C@H]1C[C@@H](Nc2ncncc2C(=O)c2cc3c(s2)C=C[C@]32NCCc3ccc(Cl)cc32)C[C@@H]1O [Compound 176] | 23.2 nM
42 | CCN1Cc2sc(C(=O)c3cncnc3N[C@@H]3C[C@H](COS(N)(=O)=O)[C@@H](O)C3)cc2[C@@]2(C1)NCCc1ccc(Cl)cc12 [Compound 182] | > 1000 nM
43 | CCN1Cc2sc(C(=O)c3cncnc3N[C@@H]3C[C@H](COS(N)(=O)=O)[C@@H](O)C3)cc2[C@]2(C1)NCCc1ccc(Cl)cc12 [Compound 183] | 18.7 nM
44 | CC(C)N1Cc2sc(C(=O)c3cncnc3N[C@@H]3C[C@H](COS(N)(=O)=O)[C@@H](O)C3)cc2[C@@]2(C1)NCCc1ccc(Cl)cc12 [Compound 185] | > 1000 nM
45 | CC(C)N1Cc2sc(C(=O)c3cncnc3N[C@@H]3C[C@H](COS(N)(=O)=O)[C@@H](O)C3)cc2[C@]2(C1)NCCc1ccc(Cl)cc12 [Compound 186] | 16.3 nM
46 | NS(=O)(=O)OC[C@H]1C[C@@H](Nc2ncncc2C(=O)c2cc3c(s2)CN(CC(F)(F)F)C[C@@]32NCCc3ccc(Cl)cc32)C[C@@H]1O [Compound 188] | > 1000 nM
47 | NS(=O)(=O)OC[C@H]1C[C@@H](Nc2ncncc2C(=O)c2cc3c(s2)CN(CC(F)(F)F)C[C@]32NCCc3ccc(Cl)cc32)C[C@@H]1O [Compound 189] | 24.5 nM
48 | C=CCN1Cc2sc(C(=O)c3cncnc3N[C@@H]3C[C@H](COS(N)(=O)=O)[C@@H](O)C3)cc2[C@@]2(C1)NCCc1ccc(Cl)cc12 [Compound 191] | > 1000 nM
49 | C=CCN1Cc2sc(C(=O)c3cncnc3N[C@@H]3C[C@H](COS(N)(=O)=O)[C@@H](O)C3)cc2[C@]2(C1)NCCc1ccc(Cl)cc12 [Compound 192] | 25.1 nM
50 | C#CCN1Cc2sc(C(=O)c3cncnc3N[C@@H]3C[C@H](COS(N)(=O)=O)[C@@H](O)C3)cc2[C@@]2(C1)NCCc1ccc(Cl)cc12 [Compound 194] | > 1000 nM
51 | C#CCN1Cc2sc(C(=O)c3cncnc3N[C@@H]3C[C@H](COS(N)(=O)=O)[C@@H](O)C3)cc2[C@]2(C1)NCCc1ccc(Cl)cc12 [Compound 195] | 21.3 nM
52 | [2H]C1([2H])Cc2ccc(Cl)cc2[C@]2(CCCc3sc(C(=O)c4cncnc4N[C@@H]4C[C@H](COS(N)(=O)=O)[C@@H](O)C4)cc32)N1 [Compound 197] | > 1000 nM
53 | [2H]C1([2H])Cc2ccc(Cl)cc2[C@@]2(CCCc3sc(C(=O)c4cncnc4N[C@@H]4C[C@H](COS(N)(=O)=O)[C@@H](O)C4)cc32)N1 [Compound 198] | 28.8 nM
54 | [2H]C1([2H])CN[C@@]2(CCCc3sc(C(=O)c4cncnc4N[C@@H]4C[C@H](COS(N)(=O)=O)[C@@H](O)C4)cc32)c2cc(Cl)ccc21 [Compound 200] | > 1000 nM
55 | [2H]C1([2H])CN[C@]2(CCCc3sc(C(=O)c4cncnc4N[C@@H]4C[C@H](COS(N)(=O)=O)[C@@H](O)C4)cc32)c2cc(Cl)ccc21 [Compound 201] | 26.5 nM
